Measurements taken from the NIST ThermoML archive (doi:10.1016/j.tca.2015.09.001).

Assay: molar heat capacity at constant pressure
Details: 101.33 kPa, Crystal, Small sample (50 mg) DSC

c12c3c4c5c1c1c6c7c2c2c8c3c3c9c4c4c%10c5c5c1c1c6c6c%11c7c2c2c7c8c3c3c8c9c4c4c9c%10c5c5c1c1c6c6c%11c2c2c7c3c3c8c4c4c9c5c1c1c6c2c3c41 [buckminsterfullerene]
Details	molar heat capacity at constant pressure [J/K/mol]
298.15 K	535.8
300 K	538.6
350 K	648.1
400 K	742
450 K	830.1
500 K	917.4
